From US20220220095A1, “N-((HETEROARYL)METHYL)-1-TOSYL-1H-PYRAZOLE-3-CARBOXAMIDE DERIVATIVES AS Kv3 POTASSIUM CHANNEL ACTIVATORS FOR TREATING NEUROLOGICAL AND [sequence] DISORDERS” (H. Lundbeck A/S, priority 2019, published 2022)

Molecular target: T1, hKv3.1b (Homo sapiens, UniProt P48547)
T1 construct: expressed in transfected cells
T1 sequence (P48547 1-585 isoform P48547-2): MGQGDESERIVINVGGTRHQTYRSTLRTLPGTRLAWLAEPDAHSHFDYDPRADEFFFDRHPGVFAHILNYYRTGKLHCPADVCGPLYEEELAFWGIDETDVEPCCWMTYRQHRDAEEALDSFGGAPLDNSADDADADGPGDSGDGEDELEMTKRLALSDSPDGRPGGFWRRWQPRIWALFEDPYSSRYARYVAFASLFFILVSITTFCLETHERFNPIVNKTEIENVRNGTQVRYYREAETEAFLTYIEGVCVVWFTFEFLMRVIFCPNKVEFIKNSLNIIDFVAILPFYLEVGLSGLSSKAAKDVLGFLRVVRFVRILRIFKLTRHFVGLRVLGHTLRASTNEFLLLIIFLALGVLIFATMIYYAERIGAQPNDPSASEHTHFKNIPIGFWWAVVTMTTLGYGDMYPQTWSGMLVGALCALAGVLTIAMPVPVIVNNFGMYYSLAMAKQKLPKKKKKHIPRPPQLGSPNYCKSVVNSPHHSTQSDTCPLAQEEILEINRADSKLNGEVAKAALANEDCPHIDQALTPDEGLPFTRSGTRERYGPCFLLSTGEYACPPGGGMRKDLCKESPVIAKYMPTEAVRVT
Experiment: Automated whole-cell patch-clamp (QPatch-16x) on HEK-293 cells stably expressing hKv3.1b: shift of voltage threshold for channel activation
Type: cell-based
Settings: HEK-293 hKv3.1b; for ECdelta5mV: concentration needed to shift the threshold 5 mV, read out from fitted concentration response curve; for Max Delta threshold: maximum absolute shift of activation threshold to more hyperpolarized potentials at the tested concentrations (0.37, 1.11, 3.33, 10, 30 μM)
Description: HEK-293 cells stably expressing hKv3.1b was used for the experiments. Cells were cultured in DMEM medium supplemented with 10% Fetal Bovine Serum, 100 ug/mL Geneticidin and 100 u/mL Penicillin/Streptomycin (all from Gibco). Cells were grown to 80-90% confluency at 37° C. and 5% CO2. On the day of the experiment the cells were detached from the tissue culture flasks by Detachin and resuspended in serum free medium containing 25 mM HEPES and transferred to the cell hotel of the QPatch. The cells were used for experiments 0-5 hours after detachment.
Patch-clamp recordings were performed using the automated recording system QPatch-16x (Sophion Bioscience, Denmark). Cells were centrifuged, SFM removed and the cells were resuspended in extracellular buffer containing (in mM): 145 NaCl, 4 KCl, 1 MgCl2, 2 CaCl2, 10 HEPES and 10 glucose (added fresh on the day of experiment); pH 7.4 adjusted with NaOH, 305 mOsm adjusted with sucrose.
Single cell whole-cell recordings were carried out using an intracellular solution containing (in mM): 120 KCl, 32.25/10 KOH/EGTA, 5.374 CaCl2, 1.75 MgCl2, 10 HEPES, 4 Na2ATP (added fresh on the day), pH 7.2 adjusted with KOH, […] adjusted with sucrose. Cell membrane potentials were held at −80 mV and currents were evoked by voltage steps (200 ms duration) from −70 mV to +10 mV (in 10 mV increments).
Leak subtraction protocol was applied at −33% of the sweep amplitude, and serial resistance values were constantly monitored.
Any cell where serial resistance exceeded 25 MOhm, membrane resistance less than 200 MOhm or current size at −10 mV less than 200 pA was eliminated from the subsequent analysis.
Data analysis was performed using Sophion's QPatch assay software in combination with Microsoft Excel™ (Redmond, Wash., USA).
Current voltage relationships were plotted from the peak current at the individual voltage steps normalized to the vehicle addition at 10 mV. The voltage threshold for channel activation was defined as 5% activation of the peak current at 10 mV in presence of vehicle. The activity of the compounds was described as the ability to shift this current voltage relationship to more hyperpolarized potentials and is given as the maximum absolute shift possible at the tested concentrations (0.37, 1.11, 3.33, 10, 30 μM). Concentration response curves were plotted from the threshold shift at the individual concentrations and were fitted excel fit model 205 sigmodal dose-response model (fit=A+((B−A)/1+((C/x)^D)))), where A is the minimum value, B the maximum value, C the EC50 value and D the slope of the curve. The concentration needed to shift the threshold 5 mV was readout from this curve (ECdelta 5 mV).

COc1ccc(S(=O)(=O)n2ccc(C(=O)NCc3cnc(C)cn3)n2)cc1C [Compound 1, 1-(4-methoxy-3-methylbenzene-1-sulfonyl)-N-[(5-methylpyrazin-2-yl)methyl]-1H-pyrazole-3-carboxamide]
ECdelta5mV: 1.8 µM | Max Delta threshold: 23 mV

COc1ccc(S(=O)(=O)n2ccc(C(=O)NCc3cnccn3)n2)c(C)c1 [Compound 3, 1-(4-methoxy-2-methylbenzene-1-sulfonyl)-N-[(pyrazin-2-yl)methyl]-1H-pyrazole-3-carboxamide]
ECdelta5mV: 1.6 µM | Max Delta threshold: 25 mV

COc1ccc(S(=O)(=O)n2ccc(C(=O)NCc3cnccn3)n2)cc1C [Compound 4, 1-(4-methoxy-3-methylbenzene-1-sulfonyl)-N-[(pyrazin-2-yl)methyl]-1H-pyrazole-3-carboxamide]
ECdelta5mV: 2.1 µM | Max Delta threshold: 21 mV

COc1ccc(S(=O)(=O)n2ccc(C(=O)NCc3cnc(C)cn3)n2)cc1 [Compound 5, 1-(4-methoxybenzene-1-sulfonyl)-N-[(5-methylpyrazin-2-yl)methyl]-1H-pyrazole-3-carboxamide]
ECdelta5mV: 1.8 µM | Max Delta threshold: 26 mV

COc1ccc(S(=O)(=O)n2ccc(C(=O)NCc3nc(C)cs3)n2)cc1 [Compound 6, 1-(4-methoxybenzene-1-sulfonyl)-N-[(4-methyl-1,3-thiazol-2-yl)methyl]-1H-pyrazole-3-carboxamide]
ECdelta5mV: 1.3 µM | Max Delta threshold: 22 mV

COc1ccc(S(=O)(=O)n2ccc(C(=O)NCc3cncnc3)n2)cc1 [Compound 7, 1-(4-methoxybenzene-1-sulfonyl)-N-[(pyrimidin-5-yl)methyl]-1H-pyrazole-3-carboxamide]
ECdelta5mV: 2.9 µM | Max Delta threshold: 18 mV

COc1ccc(S(=O)(=O)n2ccc(C(=O)NCc3ccon3)n2)cc1 [Compound 8, 1-(4-methoxybenzene-1-sulfonyl)-N-[(1,2-oxazol-3-yl)methyl]-1H-pyrazole-3-carboxamide]
ECdelta5mV: 3.8 µM | Max Delta threshold: 16 mV

COc1ccc(S(=O)(=O)n2ccc(C(=O)NCc3cnoc3)n2)cc1 [Compound 9, 1-(4-methoxybenzene-1-sulfonyl)-N-[(1,2-oxazol-4-yl)methyl]-1H-pyrazole-3-carboxamide]
ECdelta5mV: 3.9 µM | Max Delta threshold: 13 mV

COc1ccc(S(=O)(=O)n2ccc(C(=O)NCc3ccno3)n2)cc1 [Compound 10, 1-(4-methoxybenzene-1-sulfonyl)-N-[(1,2-oxazol-5-yl)methyl]-1H-pyrazole-3-carboxamide]
ECdelta5mV: 3.4 µM | Max Delta threshold: 17 mV

COc1ccc(S(=O)(=O)n2ccc(C(=O)NCc3cnc(C)nc3)n2)cc1 [Compound 11, 1-(4-methoxybenzene-1-sulfonyl)-N-[(2-methylpyrimidin-5-yl)methyl]-1H-pyrazole-3-carboxamide]
ECdelta5mV: 2.4 µM | Max Delta threshold: 29 mV

COc1ccc(S(=O)(=O)n2ccc(C(=O)NCc3cocn3)n2)cc1 [Compound 12, 1-(4-methoxybenzene-1-sulfonyl)-N-[(1,3-oxazol-4-yl)methyl]-1H-pyrazole-3-carboxamide]
ECdelta5mV: 3.8 µM | Max Delta threshold: 16 mV

COc1ccc(S(=O)(=O)n2ccc(C(=O)NCc3ncn(C)n3)n2)cc1 [Compound 13, 1-(4-methoxybenzene-1-sulfonyl)-N-[(1-methyl-1H-1,2,4-triazol-3-yl)methyl]-1H-pyrazole-3-carboxamide]
ECdelta5mV: 4 µM | Max Delta threshold: 16 mV

Cc1cc(CNC(=O)c2ccn(S(=O)(=O)c3ccccc3)n2)on1 [Compound 14, 1-(benzenesulfonyl)-N-[(3-methyl-1,2-oxazol-5-yl)methyl]-1H-pyrazole-3-carboxamide]
ECdelta5mV: 4.5 µM | Max Delta threshold: 14 mV

Cc1ccc(S(=O)(=O)n2ccc(C(=O)NCc3ncc(C)cn3)n2)cc1 [Compound 15, 1-(4-methylbenzene-1-sulfonyl)-N-[(5-methylpyrimidin-2-yl)methyl]-1H-pyrazole-3-carboxamide]
ECdelta5mV: 2.6 µM | Max Delta threshold: 23 mV

Cc1cnc(CNC(=O)c2ccn(S(=O)(=O)c3ccccc3C)n2)o1 [Compound 17, 1-(2-methylbenzene-1-sulfonyl)-N-[(5-methyl-1,3-oxazol-2-yl)methyl]-1H-pyrazole-3-carboxamide]
ECdelta5mV: 3.9 µM | Max Delta threshold: 15 mV

Cc1cccc(S(=O)(=O)n2ccc(C(=O)NCc3ncc(C)o3)n2)c1 [Compound 18, 1-(3-methylbenzene-1-sulfonyl)-N-[(5-methyl-1,3-oxazol-2-yl)methyl]-1H-pyrazole-3-carboxamide]
ECdelta5mV: 7.3 µM | Max Delta threshold: 13 mV

Cc1cccc(S(=O)(=O)n2ccc(C(=O)NCc3cc(C)no3)n2)c1 [Compound 19, 1-(3-methylbenzene-1-sulfonyl)-N-[(3-methyl-1,2-oxazol-5-yl)methyl]-1H-pyrazole-3-carboxamide]
ECdelta5mV: 2.4 µM | Max Delta threshold: 17 mV

Cc1ccc(CNC(=O)c2ccn(S(=O)(=O)c3cccc(C)c3)n2)nc1 [Compound 20, 1-(3-methylbenzene-1-sulfonyl)-N-[(5-methylpyridin-2-yl)methyl]-1H-pyrazole-3-carboxamide]
ECdelta5mV: 3.9 µM | Max Delta threshold: 12 mV

Cc1cccc(S(=O)(=O)n2ccc(C(=O)NCc3cnn(C)c3)n2)c1 [Compound 21, 1-(3-methylbenzene-1-sulfonyl)-N-[(1-methyl-1H-pyrazol-4-yl)methyl]-1H-pyrazole-3-carboxamide]
ECdelta5mV: 3.7 µM | Max Delta threshold: 16 mV

Cc1cccc(S(=O)(=O)n2ccc(C(=O)NCc3ccn(C)n3)n2)c1 [Compound 22, 1-(3-methylbenzene-1-sulfonyl)-N-[(1-methyl-1H-pyrazol-3-yl)methyl]-1H-pyrazole-3-carboxamide]
ECdelta5mV: 3.7 µM | Max Delta threshold: 14 mV

Cc1noc(CNC(=O)c2ccn(S(=O)(=O)c3ccccc3C)n2)n1 [Compound 23, 1-(2-methylbenzene-1-sulfonyl)-N-[(3-methyl-1,2,4-oxadiazol-5-yl)methyl]-1H-pyrazole-3-carboxamide]
ECdelta5mV: 5.3 µM | Max Delta threshold: 13 mV

Cc1ccc(S(=O)(=O)n2ccc(C(=O)NCc3cnccn3)n2)cc1 [Compound 24, 1-(4-methylbenzene-1-sulfonyl)-N-[(pyrazin-2-yl)methyl]-1H-pyrazole-3-carboxamide]
ECdelta5mV: 2 µM | Max Delta threshold: 23 mV

Cc1cnc(CNC(=O)c2ccn(S(=O)(=O)c3ccccc3C)n2)nc1 [Compound 25, 1-(2-methylbenzene-1-sulfonyl)-N-[(5-methylpyrimidin-2-yl)methyl]-1H-pyrazole-3-carboxamide]
ECdelta5mV: 6.5 µM | Max Delta threshold: 13 mV

Cc1ccccc1S(=O)(=O)n1ccc(C(=O)NCc2ccn(C)n2)n1 [Compound 26, 1-(2-methylbenzene-1-sulfonyl)-N-[(1-methyl-1H-pyrazol-3-yl)methyl]-1H-pyrazole-3-carboxamide]
ECdelta5mV: 2.9 µM | Max Delta threshold: 16 mV

Cc1ccc(CNC(=O)c2ccn(S(=O)(=O)c3ccccc3C)n2)nc1 [Compound 27, 1-(2-methylbenzene-1-sulfonyl)-N-[(5-methylpyridin-2-yl)methyl]-1H-pyrazole-3-carboxamide]
ECdelta5mV: 3.3 µM | Max Delta threshold: 18 mV
